Data from the NIST ThermoML archive (doi:10.1016/j.jct.2010.10.016).
± gives the expanded uncertainty stated by the source.

Experiment: xn = mol fraction of the nth substance listed
Conditions: 101 kPa, Liquid; for mass density: Pycnometric method; for speed of sound: Resonance method; for viscosity: Capillary tube (Ostwald / Ubbelohde) method

C[N+](=O)[O-] [nitromethane] + COCCO
Conditions | mass density [kg/m3] | speed of sound [m/s] | viscosity [mPa·s]
303.15 K, x1 = 0.05 | – | 1321.7 ± 2.3 | –
303.15 K, x1 = 0.0998 | – | 1318.5 ± 2.3 | –
303.15 K, x1 = 0.2 | – | 1312.9 ± 2.3 | –
303.15 K, x1 = 0.2991 | – | 1307.4 ± 2.3 | –
303.15 K, x1 = 0.4 | – | 1302.5 ± 2.3 | –
303.15 K, x1 = 0.4998 | – | 1298.1 ± 2.3 | –
303.15 K, x1 = 0.5 | 1021.4 ± 0.57 | – | –
303.15 K, x1 = 0.6 | 1038.1 ± 0.59 | 1294.5 ± 2.3 | –
303.15 K, x1 = 0.7 | 1056.45 ± 0.61 | 1292.2 ± 2.3 | –
303.15 K, x1 = 0.8 | – | 1291.7 ± 2.3 | –
303.15 K, x1 = 0.8002 | 1076.63 ± 0.63 | – | –
303.15 K, x1 = 0.8999 | 1098.72 ± 0.65 | 1293.4 ± 2.3 | –
303.15 K, x1 = 0.9503 | 1110.81 ± 0.66 | 1295.1 ± 2.4 | –
303.15 K, x1 = 1 | 1123.6 ± 0.67 | 1298.1 ± 2.4 | –
308.15 K, x1 = 0.05 | 956.53 ± 0.52 | 1310.2 ± 2.3 | –
308.15 K, x1 = 0.0671 | – | – | 1.175 ± 0.011
308.15 K, x1 = 0.0998 | 962.12 ± 0.52 | 1307.4 ± 2.3 | –
308.15 K, x1 = 0.1029 | – | – | 1.134 ± 0.011
308.15 K, x1 = 0.1995 | – | – | 1.025 ± 0.01
308.15 K, x1 = 0.2 | 974.11 ± 0.54 | 1301.4 ± 2.3 | –
308.15 K, x1 = 0.2991 | – | 1295.7 ± 2.3 | –
308.15 K, x1 = 0.3 | 986.95 ± 0.55 | – | –
308.15 K, x1 = 0.3053 | – | – | 0.917 ± 0.009
308.15 K, x1 = 0.4 | 1000.76 ± 0.56 | 1290.4 ± 2.3 | –
308.15 K, x1 = 0.4012 | – | – | 0.833 ± 0.008
308.15 K, x1 = 0.4528 | – | – | 0.792 ± 0.008
308.15 K, x1 = 0.4998 | – | 1285.6 ± 2.3 | –
308.15 K, x1 = 0.5 | 1015.8 ± 0.58 | – | –
308.15 K, x1 = 0.5078 | – | – | 0.75 ± 0.008
308.15 K, x1 = 0.5514 | – | – | 0.719 ± 0.007
308.15 K, x1 = 0.5981 | – | – | 0.689 ± 0.007
308.15 K, x1 = 0.6 | 1032.3 ± 0.59 | 1281.5 ± 2.3 | –
308.15 K, x1 = 0.6981 | – | – | 0.633 ± 0.007
308.15 K, x1 = 0.7 | 1050.38 ± 0.61 | 1278.6 ± 2.3 | –
308.15 K, x1 = 0.7954 | – | – | 0.594 ± 0.006
308.15 K, x1 = 0.8 | – | 1277.7 ± 2.3 | –
308.15 K, x1 = 0.8002 | 1070.27 ± 0.63 | – | –
308.15 K, x1 = 0.8985 | – | – | 0.572 ± 0.006
308.15 K, x1 = 0.8999 | 1092.11 ± 0.66 | 1278.6 ± 2.3 | –
308.15 K, x1 = 0.9383 | – | – | 0.569 ± 0.006
308.15 K, x1 = 0.9503 | 1104.13 ± 0.67 | 1279.6 ± 2.3 | –
308.15 K, x1 = 1 | 1116.86 ± 0.67 | 1281.2 ± 2.3 | 0.563 ± 0.006
313.15 K, x1 = 0.0498 | – | – | 1.055 ± 0.01
313.15 K, x1 = 0.05 | 951.39 ± 0.53 | 1293.9 ± 2.3 | –
313.15 K, x1 = 0.0998 | 956.87 ± 0.53 | 1291.1 ± 2.3 | –
313.15 K, x1 = 0.1101 | – | – | 0.999 ± 0.01
313.15 K, x1 = 0.2 | 968.71 ± 0.54 | 1285.4 ± 2.3 | –
313.15 K, x1 = 0.2081 | – | – | 0.911 ± 0.009
313.15 K, x1 = 0.2991 | – | 1279.7 ± 2.3 | –
313.15 K, x1 = 0.3 | 981.39 ± 0.55 | – | –
313.15 K, x1 = 0.3023 | – | – | 0.835 ± 0.008
313.15 K, x1 = 0.4 | 995.04 ± 0.56 | 1274.2 ± 2.3 | –
313.15 K, x1 = 0.4004 | – | – | 0.762 ± 0.008
313.15 K, x1 = 0.4571 | – | – | 0.722 ± 0.007
313.15 K, x1 = 0.4998 | – | 1269.3 ± 2.3 | –
313.15 K, x1 = 0.5 | 1009.9 ± 0.57 | – | –
313.15 K, x1 = 0.5015 | – | – | 0.693 ± 0.007
313.15 K, x1 = 0.5566 | – | – | 0.659 ± 0.007
313.15 K, x1 = 0.599 | – | – | 0.636 ± 0.007
313.15 K, x1 = 0.6 | 1026.19 ± 0.59 | 1265.1 ± 2.3 | –
313.15 K, x1 = 0.6995 | – | – | 0.589 ± 0.006
313.15 K, x1 = 0.7 | 1044.07 ± 0.6 | 1262.1 ± 2.3 | –
313.15 K, x1 = 0.8 | – | 1260.9 ± 2.3 | 0.562 ± 0.006
313.15 K, x1 = 0.8002 | 1063.69 ± 0.62 | – | –
313.15 K, x1 = 0.8851 | – | – | 0.555 ± 0.006
313.15 K, x1 = 0.8999 | 1085.24 ± 0.65 | 1261.5 ± 2.3 | –
313.15 K, x1 = 0.9387 | – | – | 0.553 ± 0.006
313.15 K, x1 = 0.9503 | 1097.15 ± 0.67 | 1262.2 ± 2.3 | –
313.15 K, x1 = 1 | 1109.87 ± 0.68 | 1262.8 ± 2.4 | 0.545 ± 0.006
